In patent US12448414B2, “Antimicrobial peptide (AMP) for controlling Pseudomonas syringae pv. actinidiae (PSA) and preparation method and use thereof” (Anhui Agricultural University, priority 2023, dated 2025):
“Also recorded” adds a separate entry of the source. Where two headings read alike, the source gives them in different places. No end group written: not given here.

Legend:
PSA [1] = assay: MIC determination by broth microdilution; assay type: cell-based, Pseudomonas syringae pv. actinidiae; details: PSA 10^5 CFU/mL, LB, 28° C., 24 h, OD600
Description: The MIC was determined by a broth microdilution method (Mishra et al., 2017, Individual and combined effects of engineered peptides and antibiotics on Pseudomonas aeruginosa biofilms). PSA cells in a logarithmic growth phase were diluted to 10^5 colony forming units (CFU)/mL with an LB liquid medium (including 10 g/L peptone, 5 g/L yeast extract powder, and 10 g/L NaCl), and added into a 96-well microplate that was preloaded with different concentrations of the AMP synthesized in Example 1 (1.56 μg/mL to 200 μg/mL) or agricultural streptomycin (AS) (125 μg/mL to 4,000 μg/mL). After incubation at 28° C. for 24 h, an absorbance at 600 nm (OD600) of each sample was measured using a Multiskan FC microplate reader (Thermo Fisher Scientific, Waltham, USA); while sterile water was used as a control.

PSA [2] = assay type: cell-based, Pseudomonas syringae pv. actinidiae
Description: The samples in the wells with a concentration of greater than 1 MIC during the MIC determination in step 1 were spread on an LB agar plate (including 10 g/L peptone, 5 g/L yeast extract powder, 10 g/L NaCl, and 15 g/L agar), and the colonies were counted after incubation at 28° C. for 48 h.

PSA [3] = assay: Control effect and bacterial load on kiwifruit leaves inoculated with PSA; assay type: in vivo, Pseudomonas syringae pv. actinidiae on kiwifruit; details: 1 MIC; for disease control effect: kiwifruit leaves inoculated with PSA, lesion area vs control; for bacterial load in leaves: kiwifruit leaves, 96 h
Description: The method of Bai et al. (2022, Application of phage therapy against red-fleshed kiwifruit canker) was selected to evaluate a control effect of the AMP synthesized in Example 1 on kiwifruit leaves inoculated with PSA. The leaves were injured with a syringe needle and covered with a filter paper (ϕ=1 cm) containing 50 μL of PSA (10^8 CFU/mL). After 2 h, 1 MIC of AMP or AS was added; while the PBS was used as a control. The kiwifruit plants were cultured for 96 h at 25±1° C., 70±5% relative humidity (RH), and a photoperiod of 16 h: 8 h. The lesion area and the number of colonies were counted every 48 h, and the disease control effect (%) was calculated using the following formula: Control effect (%)=(1−Lesion areatreatment/Lesion areacontrol)×100%
Bacterial load in leaves was determined according to a colony count method of Barrett-Manako et al. (2021, Real-time PCR and droplet digital PCR are accurate and reliable methods to quantify Pseudomonas syringae pv. actinidiae biovar 3 in kiwifruit infected plantlets). Leaves were collected, washed with sterile water, and homogenized with PBS. A homogenate was inoculated into a King's B solid medium (supplemented with nitrofurantoin at 12.5 μg/mL and cephalexin at 40 μg/mL). After incubation at 28° C. for 48 h, the colonies were counted to calculate lg CFU/cm^2. Colonies were confirmed by PCR using specific primers for the 16S-23SrDNA-ITS sequence of PSA (Table 1), and sequenced.

PSA [4] = assay type: cell-based, Pseudomonas syringae pv. actinidiae; details: 3 h
Description: The EC50 was determined according to a method of Gupta et al. (2015, Short, synthetic cationic peptides have antibacterial activity against Mycobacterium smegmatis by forming pores in membrane and synergizing with antibiotics). The PSA cells (10^5 CFU/mL) in a logarithmic growth phase were added to a 96-well microplate that was preloaded with different concentrations of the AMP synthesized in Example 1 (0.39 μg/mL to 12.5 μg/mL) or AS (62.5 μg/mL to 2,000 μg/mL), and then incubated at 28° C. for 3 h. A serially diluted mixture was spread on the LB agar plate, incubated for 48 h, and the colonies were counted. The EC50 was calculated by plotting percent killing as a function of the lg of AMP concentrations.

PSA cell membrane = assay: Membrane permeabilization (OD260 of filtrates); assay type: cell-based, Pseudomonas syringae pv. actinidiae; details: 1 MIC, 120 min, relative to Triton X-100; increased from 2.61%
Description: Membrane permeabilization was determined according to a method of Dang et al. (2020, Antimicrobial peptides from the edible insect Musca domestica and their preservation effect on chilled pork). PSA cells (10^7 CFU/mL) in a logarithmic growth phase were incubated with 1 MIC of the AMP synthesized in Example 1 at 28° C. for 120 min. The resulting cultures were filtered through a 0.22 μm membrane and OD260 value of the filtrates were determined. 10 mM of a phosphate-buffered saline (PBS) and Triton X-100 were used as negative and positive controls, respectively. The membrane permeabilization was calculated according to the following formula: Permeabilization (%)=(OD260 AMP/OD260 Triton)×100%.

PSA cells [5] = assay: Calcium ion leakage of PSA cells; assay type: cell-based, Pseudomonas syringae pv. actinidiae; details: after 120 min of treatment; increased from 8.70 μM
PSA cells [6] = assay: Membrane depolarization with DiSC3(5); assay type: cell-based, Pseudomonas syringae pv. actinidiae; details: 1 MIC, 28° C., 30 min
Description: Membrane depolarization was measured using a membrane potential-sensitive cyano dye 3,3′-dipropylthiadicarbocyanine iodide (DiSC3(5)) according to a method of Juba et al. (2015, Helical cationic antimicrobial peptide length and its impact on membrane disruption). PSA cells (10^7 CFU/mL) were suspended in a PBS containing 50 μg/mL of the DiSC3(5) and added to a black 96-well microplate. The microplate was incubated in a SpectraMax i3 microplate reader (Molecular Devices, San Jose, USA), and monitored until fluorescence leveled off. 1 MIC of the AMP synthesized in Example 1 was added and incubated at 28° C. for 30 min; while the PBS was used as a control. The fluorescence intensity of each sample was measured at excitation/emission wavelengths of 622 nm/670 nm, respectively.

PSA cells [7] = assay: SEM and TEM observation of PSA cells; assay type: cell-based, Pseudomonas syringae pv. actinidiae; details: 1 MIC, 2 h, 28° C.
Description: Scanning electron microscopy (SEM) and Transmission electron microscopy (TEM) were used to observe the morphological and intracellular changes of the PSA cells treated with the AMP synthesized in Example 1. PSA cells (10^7 CFU/mL) were incubated with the AMP (1 MIC) for 2 h at 28° C.; while sterile water was used as a control. For SEM, cell samples were prepared according to a protocol of Juba et al. (2015, Helical cationic antimicrobial peptide length and its impact on membrane disruption) and observed under a Hitachi SU8100 SEM (Tokyo, Japan). For TEM, cell samples were prepared according to a method of Nguyen et al. (2021, Comparison of two transmission electron microscopy methods to visualize drug-induced alterations of gram-negative bacterial morphology) and observed under a Hitachi HT-7700 TEM (Tokyo, Japan).

PSA genomic DNA = assay: DNA gel retardation; assay type: binding, Pseudomonas syringae pv. actinidiae; details: 200 ng DNA, 15.63 ng to 1,000 ng AMP, 28° C., 30 min
Description: A PSA genomic DNA (200 ng) was incubated with different amounts of the AMP (15.63 ng to 1,000 ng) synthesized in Example 1 at 28° C. for 30 min. At the same time, sterile water was set as a control. After electrophoresis, DNA gel retardation was observed under UV illumination using a Bio-Rad Universal Hood II Gel Doc XR system (Hercules, USA).

[8] = test system: DNA replication (dnaA and dnaB) and DNA repair (recA and recN) genes; assay: RT-qPCR of DNA replication and repair genes; assay type: cell-based, Pseudomonas syringae pv. actinidiae; details: 1 MIC, 28° C., 2 h
Description: PSA cells (10^7 CFU/mL) were incubated with 1 MIC of the AMP synthesized in Example 1 at 28° C. for 2 h. At the same time, sterile water was set as a control. A total RNA was extracted, and cDNA was synthesized using PrimeScript RT Master Mix (Takara, Dalian, China). The expression of DNA replication (dnaA and dnaB) and DNA repair (recA and recN) genes were detected by reverse transcription-quantitative PCR (RT-qPCR). The RT-qPCR was conducted with a mixed system including 10 μL of Masser Mix (Tsinke, Beijing, China), 0.8 μL of each primer (0.5 μM), 0.4 μL (200 ng) of the cDNA, and 8 μL of water. The reaction was conducted by: at 50° C. for 2 min; initial denaturation at 95° C. for 2 min; and at 95° C. for 15 sec, at 55° C. for 30 sec, and at 72° C. for 30 sec, conducting 40 cycles. 16S rRNA was used as a reference gene. A relative expression level of genes was calculated by a 2-AACT method.

PSA cells [9] = assay: ROS level (DCFH-DA fluorescence); assay type: cell-based, Pseudomonas syringae pv. actinidiae
Description: The reactive oxygen species (ROS) level of PSA treated with the AMP synthesized in Example 1 was evaluated using a ROS detection kit (LabLead, Beijing, China). PSA cells (10^7 CFU/mL) were incubated with different concentrations of the AMPs (0.5 MIC to 2 MICs) at 28° C. for 2 h. At the same time, sterile water was set as a control. The cells were resuspended in PBS and then incubated with 10 μM of 2′,7′-dichlorodihydrofluorescein diacetate (DCFH-DA) for 30 min at 28° C. Fluorescence intensity was measured at excitation/emission wavelengths of 485 nm/525 nm using a SpectraMax i3 microplate reader (Molecular Devices, San Jose, USA).

[10] = test system: intracellular esterase of PSA; assay: Intracellular esterase activity (FDA fluorescence); assay type: cell-based, Pseudomonas syringae pv. actinidiae; details: 1 MIC, at 120 min
Description: The intracellular esterase activity of PSA was measured with fluorescein diacetate (FDA). PSA cells (10^7 CFU/mL) were added to a black 96-well microplate preloaded with 1 MIC of the AMP synthesized in Example 1. The cells in each well were mixed with 10 mM of the FDA and incubated at 28° C. for 10 min. Fluorescence intensity was measured at excitation wavelengths of 480 nm/530 nm using the SpectraMax i3 microplate reader (Molecular Devices, San Jose, USA), respectively.

[11] = test system: defense genes (PR1 and PR-10); assay: RT-qPCR of defense genes in kiwifruit leaves; assay type: in vivo; details: PSA-inoculated kiwifruit leaves, 48 h
Description: The expression of defense genes (PRI and PR-10) in kiwifruit leaves was detected by RT-qPCR. The leaves were collected 48 h after AMP inoculation with PSA, and a total RNA was extracted from three leaf discs for each replicate, and cDNA was synthesized. The RT-qPCR was conducted using the method in Example 4. Actin was used as a reference gene. […] A relative expression level of genes was calculated by a 2-AACT method.

PSA [12] = assay: Drug resistance of PSA to the AMP (repeated subculture, MIC change); assay type: cell-based, Pseudomonas syringae pv. actinidiae; details: repeated treatment at 0.75, 1 and 1.25 MIC, 14 d
Description: Microbial resistance was determined according to a method of Steczko et al. (2009, Microbial inactivation properties of a new antimicrobial/antithrombotic catheter lock solution (citrate/methylene blue/parabens)). 10^5 CFU/mL of a PSA bacteria solution was treated with AMPs at final concentrations of 0.75 MIC, 1 MIC, and 1.25 MIC. After 24 h of incubation, the MIC was determined by microdilution assay. Subculture and MIC determination were conducted by the same method every day for a total of 14 d. The drug resistance of PSA was evaluated by observing changes of the MIC.

## agricultural streptomycin [AS, reference compound]
PSA [1]
  MIC: 500 µg/mL
PSA [2]; LB agar plate, 28° C., 48 h colony count
  MBC: 1,000 μg/mL
PSA [3]
  disease control effect: 55.80%
  bacterial load in leaves: 4.48 lg CFU/cm^2

## WWKLLRKL-NH2 [AMP, Trp-Trp-Lys-Leu-Leu-Arg-Lys-Leu-NH2]
PSA [1]
  MIC: 3.13 µg/mL
PSA [2]; 48 h
  MBC: 6.25 µg/mL
PSA [4]
  EC50: 1.67 µg/mL
PSA cell membrane
  permeabilization of the PSA cell membrane: 11.44%
PSA cells [5]
  calcium ion leakage: 60.87 µM
PSA cells [6]
  membrane depolarization (DiSC3(5) fluorescence): significantly induced an increase in DiSC3 (5) fluorescence
PSA cells [7]
  cell morphology and intracellular changes (SEM/TEM): notable alterations in cell morphology
PSA genomic DNA
  binding with PSA genomic DNA (gel retardation): bind to the genomic DNA of PSA and retard the migration of DNA in a concentration-dependent manner
[8]
  reduction of dnaA expression level vs control: 80.64%
  reduction of dnaB expression level vs control: 57.51%
  reduction of recA expression level vs control: 35.28%
  reduction of recN expression level vs control: 39.23%
PSA cells [9]; 0.5 MIC to 2 MICs
  ROS fluorescence intensity, dose dependence: increased in a dose-dependent manner
PSA cells [9]; 2 MIC, 28° C., 2 h
  ROS fluorescence intensity relative to control: 4.22 times that of the control
[10]
  esterase (FDA) fluorescence intensity relative to control: 0.34 times that of the control
PSA [3]
  disease control effect: 70.53%
  bacterial load in leaves: 2.95 lg CFU/cm^2
[11]
  expression level of PR 1 relative to control: 1.38 times that of the control group
  expression level of PR-10 relative to control: 1.74 times that of the control
PSA [12]
  drug resistance of PSA (change of MIC): no drug resistance of PSA to AMP is observed; also recorded: no change was found in the MIC
